Key:
Gaeumannomyces graminis = Gaeumannomyces graminis / liquid culture (take-all of cereals); format: cell-based; settings: PDB potato dextrose broth, 24° C., 4-5 days after application, read-out: disease control (inhibition of growth determined photometrically)
Outline: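 Growth inhibition measured photometrically 4–5 days post-application, following incubation at 24 °C. Test compound, applied from DMSO at 200 ppm, mixed with fungal mycelial fragments in potato dextrose broth.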

[1] = system: Glomerella lagenarium (Colletotrichum lagenarium); experiment: Glomerella lagenarium (Colletotrichum lagenarium) / liquid culture (anthracnose); format: cell-based; settings: Colletotrichum orbiculare, PDB potato dextrose broth, 24° C., 3-4 days after application, read-out: disease control (inhibition of growth measured photometrically)
Description: 11. Glomerella lagenarium (Colletotrichum lagenarium)/Liquid Culture (Anthracnose): Conidia of the fungus from cryogenic storage were directly mixed into nutrient broth (PDB potato dextrose broth). After placing a DMSO solution of test compound into a 96-well microtiter plate at an application rate of 200 ppm, the nutrient broth containing the fungal spores was added. The test plates were incubated at 24° C. and the inhibition of growth was measured photometrically 3-4 days after application.

Plasmopara viticola = experiment: whole plant or invertebrate; format: in vivo; settings: foliar, read-out: disease control
[2] = system: Mycosphaerella graminicola (Septoria tritici); experiment: Mycosphaerella graminicola (Septoria tritici) / liquid culture (Septoria blotch); format: cell-based; settings: Zymoseptoria tritici, PDB potato dextrose broth, 24° C., 4-5 days after application, read-out: disease control (inhibition of growth determined photometrically)
Outline: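 Growth inhibition was read photometrically 4-5 days after application, following incubation at 24° C of fungal conidia in potato dextrose broth over test compound (200 ppm, from DMSO solution) in microtiter plates.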

[3] = system: Mycosphaerella arachidis (Cercospora arachidicola); experiment: Mycosphaerella arachidis (Cercospora arachidicola) / liquid culture (early leaf spot); format: cell-based; settings: PDB potato dextrose broth, 24° C., 4-5 days after application, read-out: disease control (inhibition of growth determined photometrically)
Outline: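 Test compound, applied at 200 ppm from DMSO solution, was combined with spore-containing potato dextrose broth. Photometric growth inhibition was scored after 4-5 days at 24° C.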

Pythium ultimum = Pythium ultimum / liquid culture (seedling damping off); format: cell-based; settings: Globisporangium ultimum; 200 ppm; potato dextrose broth, 24° C., 2-3 days after application; read-out: disease control (inhibition of growth determined photometrically)
[4] = system: Thanatephorus cucumeris (Rhizoctonia solani); experiment: Thanatephorus cucumeris (Rhizoctonia solani) / liquid culture (foot rot, damping-off); format: cell-based; settings: PDB potato dextrose broth, 24° C., 3-4 days after application, read-out: disease control (inhibition of growth determined photometrically)
Outline: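 Photometric growth-inhibition readout taken 3-4 days after application, with cultures incubated at 24 °C. Test compound was applied at 200 ppm from DMSO solution to R. solani mycelial fragments in PDB.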

[5] = system: Monographella nivalis (Microdochium nivale); experiment: Monographella nivalis (Microdochium nivale) / liquid culture (foot rot cereals); format: cell-based; settings: PDB potato dextrose broth, 24° C., 4-5 days after application, read-out: disease control (inhibition of growth determined photometrically)

CC#CC(C)OC(=O)c1ccc2c(c1)B(O)OC2 (centres unmarked) [Compound 341]
≥ 80%: inhibition at 200 ppm (Gaeumannomyces graminis) | inhibition at 200 ppm [1] | pest or weed control at 200 ppm (Plasmopara viticola) | inhibition at 200 ppm [2] | inhibition at 200 ppm [3] | inhibition at 200 ppm (Pythium ultimum) | inhibition at 200 ppm [4]

C#CCOC(=O)c1ccc2c(c1)B(O)OC2 [Compound 320]
≥ 80%: inhibition at 200 ppm (Gaeumannomyces graminis) | inhibition at 200 ppm [1] | pest or weed control at 200 ppm (Plasmopara viticola) | inhibition at 200 ppm [2] | inhibition at 200 ppm [3] | inhibition at 200 ppm [5] | inhibition at 200 ppm (Pythium ultimum) | inhibition at 200 ppm [4]

O=C(OCC(Cl)(Cl)Cl)c1cc2c(cc1F)COB2O [Compound 382]
≥ 80%: inhibition at 200 ppm (Gaeumannomyces graminis) | inhibition at 200 ppm [1] | pest or weed control at 200 ppm (Plasmopara viticola) | inhibition at 200 ppm [2] | inhibition at 200 ppm [3] | inhibition at 200 ppm [5] | inhibition at 200 ppm (Pythium ultimum) | inhibition at 200 ppm [4]

C=CCOC(=O)c1ccc2c(c1)B(O)OC2 [Compound 340]
≥ 80%: inhibition at 200 ppm (Gaeumannomyces graminis) | inhibition at 200 ppm [1] | pest or weed control at 200 ppm (Plasmopara viticola) | inhibition at 200 ppm [2] | inhibition at 200 ppm [3] | inhibition at 200 ppm [5] | inhibition at 200 ppm (Pythium ultimum) | inhibition at 200 ppm [4]

O=C(OCC1CC1)c1cc2c(cc1F)COB2O [Compound 388]
≥ 80%: inhibition at 200 ppm (Gaeumannomyces graminis) | inhibition at 200 ppm [1] | pest or weed control at 200 ppm (Plasmopara viticola) | inhibition at 200 ppm [2] | inhibition at 200 ppm [3] | inhibition at 200 ppm [5] | inhibition at 200 ppm (Pythium ultimum) | inhibition at 200 ppm [4]

O=C(OCCc1c(Cl)cccc1Cl)c1cc2c(cc1Cl)COB2O [Compound 240]
≥ 80%: inhibition at 200 ppm (Gaeumannomyces graminis) | inhibition at 200 ppm [1] | pest or weed control at 200 ppm (Plasmopara viticola) | inhibition at 200 ppm [2] | inhibition at 200 ppm [3] | inhibition at 200 ppm [5] | inhibition at 200 ppm (Pythium ultimum) | inhibition at 200 ppm [4]

O=C(OCC1CC1)c1ccc2c(c1)B(O)OC2 [Compound 328]
≥ 80%: inhibition at 200 ppm (Gaeumannomyces graminis) | inhibition at 200 ppm [1] | pest or weed control at 200 ppm (Plasmopara viticola) | inhibition at 200 ppm [2] | inhibition at 200 ppm [3] | inhibition at 200 ppm [5] | inhibition at 200 ppm (Pythium ultimum) | inhibition at 200 ppm [4]

O=C(OC1CCC1)c1cc2c(cc1F)COB2O [Compound 392]
≥ 80%: inhibition at 200 ppm [1] | pest or weed control at 200 ppm (Plasmopara viticola) | inhibition at 200 ppm [2] | inhibition at 200 ppm [3] | inhibition at 200 ppm [5] | inhibition at 200 ppm (Pythium ultimum) | inhibition at 200 ppm [4]

COc1ccc(OCCOC(=O)c2cc3c(cc2Cl)COB3O)cc1 [Compound 218]
≥ 80%: inhibition at 200 ppm (Gaeumannomyces graminis) | inhibition at 200 ppm [1] | inhibition at 200 ppm [2] | inhibition at 200 ppm [3] | inhibition at 200 ppm [5] | inhibition at 200 ppm (Pythium ultimum) | inhibition at 200 ppm [4]

O=C(OCc1cccc(F)c1)c1cc2c(cc1Cl)COB2O [Compound 241]
≥ 80%: inhibition at 200 ppm (Gaeumannomyces graminis) | inhibition at 200 ppm [1] | inhibition at 200 ppm [2] | inhibition at 200 ppm [3] | inhibition at 200 ppm [5] | inhibition at 200 ppm (Pythium ultimum) | inhibition at 200 ppm [4]

O=C(OCc1cccc2ccccc12)c1cc2c(cc1F)COB2O [Compound 394]
≥ 80%: inhibition at 200 ppm (Gaeumannomyces graminis) | inhibition at 200 ppm [1] | pest or weed control at 200 ppm (Plasmopara viticola) | inhibition at 200 ppm [2] | inhibition at 200 ppm [3] | inhibition at 200 ppm [5] | inhibition at 200 ppm (Pythium ultimum) | inhibition at 200 ppm [4]

O=C(OCc1ccc(C(F)(F)F)nc1)c1ccc2c(c1)B(O)OC2 [Compound 343]
≥ 80%: inhibition at 200 ppm (Gaeumannomyces graminis) | inhibition at 200 ppm [1] | pest or weed control at 200 ppm (Plasmopara viticola) | inhibition at 200 ppm [2] | inhibition at 200 ppm [3] | inhibition at 200 ppm [5] | inhibition at 200 ppm (Pythium ultimum) | inhibition at 200 ppm [4]

CCCCCCCOC(=O)c1cc2c(cc1F)COB2O [Compound 378]
≥ 80%: inhibition at 200 ppm (Gaeumannomyces graminis) | inhibition at 200 ppm [1] | inhibition at 200 ppm [2] | inhibition at 200 ppm [3] | inhibition at 200 ppm [5] | inhibition at 200 ppm (Pythium ultimum) | inhibition at 200 ppm [4]

C=CCOC(=O)c1cc2c(cc1F)COB2O [Compound 403]
≥ 80%: inhibition at 200 ppm (Gaeumannomyces graminis) | inhibition at 200 ppm [1] | pest or weed control at 200 ppm (Plasmopara viticola) | inhibition at 200 ppm [2] | inhibition at 200 ppm [3] | inhibition at 200 ppm [5] | inhibition at 200 ppm (Pythium ultimum) | inhibition at 200 ppm [4]

O=C(OCC(F)(F)Cl)c1ccc2c(c1)B(O)OC2 [Compound 314]
≥ 80%: inhibition at 200 ppm (Gaeumannomyces graminis) | inhibition at 200 ppm [1] | pest or weed control at 200 ppm (Plasmopara viticola) | inhibition at 200 ppm [2] | inhibition at 200 ppm [3] | inhibition at 200 ppm [5] | inhibition at 200 ppm (Pythium ultimum) | inhibition at 200 ppm [4]

O=C(OCCOc1ccc(Cl)cc1)c1cc2c(cc1F)COB2O [Compound 414]
≥ 80%: inhibition at 200 ppm (Gaeumannomyces graminis) | inhibition at 200 ppm [1] | inhibition at 200 ppm [2] | inhibition at 200 ppm [3] | inhibition at 200 ppm [5] | inhibition at 200 ppm (Pythium ultimum) | inhibition at 200 ppm [4]

C[Si](C)(C)/C=C/COC(=O)c1cc2c(cc1F)COB2O [Compound 404]
≥ 80%: inhibition at 200 ppm (Gaeumannomyces graminis) | inhibition at 200 ppm [1] | inhibition at 200 ppm [2] | inhibition at 200 ppm [3] | inhibition at 200 ppm [5] | inhibition at 200 ppm (Pythium ultimum) | inhibition at 200 ppm [4]

CCCCCCCOC(=O)c1cc2c(cc1Cl)COB2O [Compound 195]
≥ 80%: inhibition at 200 ppm (Gaeumannomyces graminis) | inhibition at 200 ppm [1] | inhibition at 200 ppm [2] | inhibition at 200 ppm [3] | inhibition at 200 ppm [5] | inhibition at 200 ppm [4]

C=C(C)COC(=O)c1cc2c(cc1Cl)COB2O [Compound 214]
≥ 80%: inhibition at 200 ppm (Gaeumannomyces graminis) | inhibition at 200 ppm [1] | inhibition at 200 ppm [2] | inhibition at 200 ppm [3] | inhibition at 200 ppm [5] | inhibition at 200 ppm (Pythium ultimum) | inhibition at 200 ppm [4]

COc1ccc(OCCOC(=O)c2cc3c(cc2F)COB3O)cc1 [Compound 406]
≥ 80%: inhibition at 200 ppm (Gaeumannomyces graminis) | inhibition at 200 ppm [1] | inhibition at 200 ppm [2] | inhibition at 200 ppm [3] | inhibition at 200 ppm [5] | inhibition at 200 ppm (Pythium ultimum) | inhibition at 200 ppm [4]
